We go through 1 compound from patent US9458192B1, “Covalent granzyme B inhibitors” (viDA Therapeutics Inc., priority 2014, dated 2016).

This assay addresses GzmB (Homo sapiens, UniProt P10144). The experiment in a line: Inhibition of fibronectin cleavage by GzmB. Type of assay: biochemical. The settings on record: 20 nM granzyme B, Hilyte Fluor 488 labeled fibronectin, 30° C. As for the experimental part:
Black, 96 well high-binding assay plates (Griener Bio-one) were treated overnight at 4° C. with 40 uL of 8 ug/mL Hilyte Fluor 488 labeled Fibronectin (Cytoskeleton, Inc). After fibronectin coating, plates were washed 3 times in buffer (20 mM Tris-HCl, pH 7.4, 20 mM NaCl) then once with granzyme B assay buffer (50 mM HEPES, pH 7.5, 0.1% CHAPS). After washing, 50 uL of granzyme B assay buffer was added to each fibronectin-coated well. In a separate non-binding 96 well assay plate 5 uL of 20× inhibitor serial dilution stocks were added to 45 uL of 2.22×GzmB mix to establish inhibition (enzyme/inhibitor mixes were all prepared in granzyme B assay buffer and were incubated first at room temperature for 20 minutes, then at 30° C. for another 10 minutes). After incubation, 50 uL of this 2× enzyme/inhibitor mix was added to the corresponding coated well to initiate fibronectin cleavage (20 nM final granzyme B concentration, 8-point inhibitor dilution series starting at 50 uM). The assay was conducted at 30° C. in the TECAN plate reader (TECAN INFINITE® M1000 Pro), which was programmed to monitor the kinetic fluorescence polarization signal (filter set Ex/Em 470 nm/527 nm) with readings taken every minute, for 1 hour. Proteolytic activity was evaluated as the rate of fluorescence enhancement in the parallel emission over the linear range of the reaction. % Inhibition values were calculated from assay controls and the resulting date is shown in Table 2.

GzmB, sequence (P10144 21-247): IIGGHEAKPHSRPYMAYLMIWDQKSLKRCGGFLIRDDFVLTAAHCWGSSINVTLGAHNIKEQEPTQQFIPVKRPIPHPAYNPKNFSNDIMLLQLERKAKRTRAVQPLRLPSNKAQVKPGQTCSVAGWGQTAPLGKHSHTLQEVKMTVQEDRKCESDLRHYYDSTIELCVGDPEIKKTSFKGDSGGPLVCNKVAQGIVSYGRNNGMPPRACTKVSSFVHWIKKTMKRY

With `CC[C@H](C)[C@H](NC(=O)CCC(=O)O)C(=O)NCC(=O)N1c2ccccc2C[C@H]1C(=O)NC(C=O)CC(=O)O` (stereo in doubt) [Compound C1, (S)-3-{[1-{2-[(2S,3S)-2-(3-carboxypropanamido)-3-methylpentanamido]acetyl}-2,3-dihydro-1H-indol-2-yl]formamido}-4-oxobutanoic acid], the inhibition at 0.62 µM (0.62 uM inhibitor, read-out: Percent Inhibition at Inhibitor Concentration 0.62 uM) amounted to 60%. Further, the inhibition at 5.56 µM (5.56 uM inhibitor, read-out: Percent Inhibition at Inhibitor Concentration 5.56 uM) came out at 87%. For the same compound, the inhibition at 50 µM (50 uM inhibitor, read-out: Percent Inhibition at Inhibitor Concentration 50 uM) stood at 95%.
